The values that follow are results of earlier work, collected in US7993390B2, “Implantable or insertable medical device resistant to microbial growth and biofilm formation” (Boston Scientific Scimed, Inc., priority 2002, dated 2011).

In this series the test system is most gram positive and gram negative aerobic and anaerobic bacteria, some yeast and fungi. The note with it: most organisms tested.

In the case of `Oc1cc(Cl)ccc1Oc1ccc(Cl)cc1Cl` [triclosan], the MIC is recorded as less than 0.3 ppm.
